Experimental data as given in US20040254125A1, “Anthelmintic composition” (priority 2001, published 2004).

Experiments:
Type in all cases: in vivo
[1] = tested on: mites; assay: Spot-on Test (Extermination Test on Mites) in dogs; conditions: dogs naturally infected; spot-on to back of neck, 5 mg/kg of Reference Example 1 (10 g : 3.8 g fipronil per 100 ml); examined three days after administration
Protocol: Compound (10 g) of Reference Example 1 and fipronil (3.8 g) were mixed. This mixture was dissolved in a mixed solvent (9:1) of benzyl alcohol and propylene carbonate so as to be a total volume of 100 ml, and 0.05% of BHT was further added to prepare a formulation for the spot-on test. Further, as a control, formulations were prepared by using each of the compound of Reference Example 1 solo and fipronil solo to carry out the test.
The above-described formulation for spot-on test was dropped to the back part of the neck of each dog (two dogs in each test location) naturally infected with mites at a dose of 5 mg/kg of the compound in Reference Example 1. In each dog, infection with mites was examined three days after the dropwise administration.

[2] = tested on: Toxocara canis; assay: Oral Test in dogs naturally infected with Toxocara canis; conditions: single oral dose in gelatine capsule (Reference Example 1 5 mg/kg, praziquantel 1.25 mg/kg), postmortem on 10th day
Protocol: (§1) Compound (5 mg/kg) of Reference Example 1 and praziquantel (1.25 mg/kg) were encapsulated into gelatine to a predetermined amount to prepare a formulation for Oral Test. Incidentally, formulations were prepared as controls by using each of the compound of Reference Example 1 solo and fipronil solo to carry out the test.
(§2) The formulation was administered orally once to dogs (two dogs in each test location) naturally infected with Dipylidium caninum and Toxocara canis. Incidentally, the infection with Dipylidium caninum was confirmed by the excretion of proglottid of Dipylidium caninum into faeces three days before administration of drugs. The infection with Toxocara canis was confirmed by the excretion of eggs of Toxocara canis into faeces immediately before administration of drugs. On the 10th day after the administration of drugs, the dogs were subjected to postmortem to count the number of surviving Dipylidium caninum and Toxocara canis.

[3] = tested on: Dipylidium caninum; assay: Oral Test in dogs naturally infected with Dipylidium caninum; conditions: single oral dose in gelatine capsule (Reference Example 1 5 mg/kg, praziquantel 1.25 mg/kg), postmortem on 10th day
Protocol: as §1, §2

Molecule | treating infection with mites [1] | exterminating Toxocara canis (number of surviving parasites at postmortem) [2] | exterminating Dipylidium caninum (number of surviving parasites at postmortem) [3]
13-[1-(4-methoxyacetylaminophenyl) cyclopentanecarbonyloxy]-5-hydroxy-milbemycin A4 [Reference Example 1] | ineffective | effective | ineffective
N#Cc1nn(-c2c(Cl)cc(C(F)(F)F)cc2Cl)c(N)c1[S+]([O-])C(F)(F)F (stereo not drawn) [fipronil] | ineffective |  | 
O=C(C1CCCCC1)N1CC(=O)N2CCc3ccccc3C2C1 (stereo not drawn) [praziquantels, praziquantel] |  | ineffective | effective
